Molecular target: Neuraminidase (Influenza A virus, UniProt Q6Q793)

SMILES | IC50 [nM]
CCC(CC)O[C@@H]1C=C(P(=O)(O)O)C[C@H](NC(=N)N)[C@H]1NC(C)=O | 0.04
CCOP(=O)(O)C1=C[C@@H](OC(CC)CC)[C@H](NC(C)=O)[C@@H](N)C1 [TAMIPHOSPHOR MONOETHYL ESTER] | 2.2

Reference: ChEMBL document CHEMBL2203066 (J Med Chem, 2012)
